# Source: US4847272A, “Thianaphthene derivatives” (Sankyo Company Limited, priority 1986, dated 1989)
# Structures can show the parent of a compound that is named as a salt.
# How the values were obtained:
# [1] = molecular target: T1, Thromboxane A2 Synthetase (Oryctolagus cuniculus, UniProt G1TAZ9); test: Inhibition of Thromboxane A2 Synthetase, rabbit platelet microsomes; format: biochemical; details: 1-[14C] arachidonic acid 0.1 mM, 1 minute at 22° C., read-out: IC50, concentration required to inhibit the activity of thromboxane synthetase by 50%
# T1 construct: The platelet microsome fraction was separated from rabbit and from human blood; from tissue; host or cells: rabbit blood platelets, microsome fraction
# T1 sequence (G1TAZ9 1-530): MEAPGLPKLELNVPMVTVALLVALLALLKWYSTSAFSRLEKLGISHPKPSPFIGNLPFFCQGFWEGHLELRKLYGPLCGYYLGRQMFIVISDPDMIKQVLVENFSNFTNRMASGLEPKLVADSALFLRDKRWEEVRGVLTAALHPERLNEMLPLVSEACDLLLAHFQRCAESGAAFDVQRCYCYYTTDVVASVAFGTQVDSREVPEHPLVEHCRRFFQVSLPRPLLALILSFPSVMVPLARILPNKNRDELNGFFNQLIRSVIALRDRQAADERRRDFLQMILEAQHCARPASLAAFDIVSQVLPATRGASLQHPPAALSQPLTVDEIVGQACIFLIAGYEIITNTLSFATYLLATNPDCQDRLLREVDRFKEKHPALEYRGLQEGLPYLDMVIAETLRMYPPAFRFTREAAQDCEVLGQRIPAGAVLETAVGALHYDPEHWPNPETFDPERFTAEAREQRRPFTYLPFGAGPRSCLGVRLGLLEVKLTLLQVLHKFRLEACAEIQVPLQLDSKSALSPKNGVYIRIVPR
# Procedure: (§1) The platelet microsome fraction was separated from rabbit and from human blood by the method of Needleman et al. [Needleman et al., Science, 193, 163 (1976)]. The microsomal TXA2 synthetase activity in the presence of various of the compounds of the invention at various concentrations was assayed by a modification of the method of […] et al. [[…] et al., Prostaglandins, 21, 543 (1981)] by incubating the microsome fractions with labelled 1-[^14 C] arachidonic acid at a concentration of 0.1 mM for 1 minute at 22° C., to a final volume of 0.2 ml. The reaction was terminated by the addition of […] of 0.2M citric acid, and then the mixture was extracted with 1.5 ml of ethyl acetate. […] The developing solvent for the chromatography was a 90:8:1:0.8 by volume mixture of chloroform, methanol, acetic acid and water. […] The results are shown in the following Tables 1 and 2 as the IC50, i.e. the concentration required to inhibit the activity of thromboxane synthetase by 50%. The results using rabbits platelet microsomes are given in Table 1, whilst the results using human platelet microsomes are given in Table 2.
# [2] = molecular target: T2, Thromboxane A2 Synthetase (Homo sapiens, UniProt P24557); test: Inhibition of Thromboxane A2 Synthetase, human platelet microsomes; format: biochemical; details: 1-[14C] arachidonic acid 0.1 mM, 1 minute at 22° C., read-out: IC50, concentration required to inhibit the activity of thromboxane synthetase by 50%
# T2 construct: The platelet microsome fraction was separated from rabbit and from human blood; from tissue; host or cells: human blood platelets, microsome fraction
# T2 sequence (P24557 1-533): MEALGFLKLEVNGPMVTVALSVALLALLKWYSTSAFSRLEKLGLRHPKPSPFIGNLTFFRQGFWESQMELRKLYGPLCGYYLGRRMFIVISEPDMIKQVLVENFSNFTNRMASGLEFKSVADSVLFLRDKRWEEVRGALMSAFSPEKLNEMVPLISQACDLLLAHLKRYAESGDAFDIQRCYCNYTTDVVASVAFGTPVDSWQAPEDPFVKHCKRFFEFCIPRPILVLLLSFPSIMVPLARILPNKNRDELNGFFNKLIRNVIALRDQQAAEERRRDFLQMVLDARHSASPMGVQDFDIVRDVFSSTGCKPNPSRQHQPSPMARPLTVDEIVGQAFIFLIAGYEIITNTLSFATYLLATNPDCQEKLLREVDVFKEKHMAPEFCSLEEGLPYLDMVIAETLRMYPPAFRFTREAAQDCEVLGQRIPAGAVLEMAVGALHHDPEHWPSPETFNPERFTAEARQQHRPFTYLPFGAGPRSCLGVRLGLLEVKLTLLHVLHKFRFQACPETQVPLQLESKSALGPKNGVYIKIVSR
# Procedure: as §1
# rabbits = test: Antithrombotic Activity in Rabbits (sudden death after i.v. arachidonic acid); format: in vivo, male Japanese white rabbits; details: Oryctolagus cuniculus, 1 h; oral, one hour before 1.3 mg/kg arachidonic acid i.v.; Probit's method
# Procedure: This test was carried out by a modification of the method of Silver et al. [Science, 183, 1085 (1974)]. The test animals used were male Japanese white rabbits of approximately 3 kg body weight. Each group of rabbits was administered orally the test compound at an appropriate dose and then, one hour after the oral administration, each was given 1.3 mg/kg of arachidonic acid by intravenous injection. The test animals were observed and sudden deaths during the test period were recorded. The ED50 was determined by Probit's method. Unmedicated rabbits were employed as a control, without administering any test compound, but these were all dead within several minutes after the injection of arachidonic acid, as a result of pulmonary thromboembolisms.
Compound,IC50 [1] [nM],IC50 [2] [nM],ED50 (rabbits) [mg/kg]
"O=C(O)C1CCc2cc(Cn3ccnc3)sc2C1 (stereo not drawn) [Compound A, 4,5,6,7-tetrahydro-2-(1-imidazolyl)methylthianaphthene-6-carboxylic acid hydrochloride]",26,30,0.27
"O=C(O)C1=Cc2sc(Cn3ccnc3)cc2CC1 [Compound B, sodium 4,5-dihydro-2-(1-imidazolyl)methylthianaphthene-6-carboxylate]",13,31,0.12
"O=C(O)C1CCc2sc(Cn3ccnc3)cc2C1 (stereo not drawn) [Compound C, 4,5,6,7-tetrahydro-2-(1-imidazolyl)methylthianaphthene-5-carboxylic acid hydrochloride]",86,,
"Cl.O=C(O)c1ccc(OCCn2ccnc2)cc1 [Dazoxiben, 4-[2-(1-imidazolyl)ethoxy]benzoic acid hydrochloride, reference compound]",106,,1.1
